Test results taken from US10772902B2, “Use of floridoside or isethionic acid to potentiate antimicrobial activity of antibiotics” (OCELAND BIOLOGICALS LIMITED, priority 2016, dated 2020).
Converted amounts (≈) assume the structure as drawn.

How the values were obtained:
S. Enteritidis [1] = assay: Antimicrobial effect of seaweed pure compounds, broth inoculation method (log CFU/mL); assay type: cell-based, Salmonella Enteritidis; conditions: 15 μg/mL of compound, no antibiotic; for colony count of S. Enteritidis, log CFU: control log CFU 6.5
Experimental: These pure compounds were tested in vitro against S. Enteritidis using the broth inoculation method of Example 2, but without the tetracycline or streptomycin. Fifteen (15) μg/mL of each compound was added to TSA broth and inoculated with S. Enteritidis.

S. Enteritidis [2] = assay: Minimum inhibitory concentrations (MIC25, MIC50) of antibiotics, broth inoculation method; assay type: cell-based; conditions: Salmonella enterica, 37° C., 16-18 h, inoculum 1×10^8 cells/mL
Experimental: Nalidixic acid resistant strain of S. Enteritidis was provided by Laboratory for Foodborne Zoonoses, Public Health Agency of Canada, Guelph, Ontario. Half strength tryptic soy agar (TSA) medium (Difco) supplemented with nalidixic acid at a concentration of 32 μg/mL was used for bacterial growth. Tetracycline and Streptomycin were obtained from Sigma Aldrich (Oakville, Ontario, Canada). Stock solutions of antibiotics and seaweed extract were prepared and stored at −20° C. Other chemicals and media were purchased from Difco Laboratories, Baltimore, Md., USA. Red seaweeds (Chondrus crispus, and Sarcodiotheca gaudichaudii) were provided by Acadian Seaplants Limited, Nova Scotia, Canada.
The susceptibility of S. Enteritidis to tetracycline and streptomycin was tested by broth inoculation method. The testing of MICs (MIC25 and MIC50) was performed in triplicates with an inoculum of 1×10^8 cells/mL. […] MATLAB R2010a (curve fitting tool) was used to determine minimum inhibitory concentrations (MIC) of the antibiotics.

S. Enteritidis [3] = assay: Combined effect of seaweed extract and antibiotics, liquid culture inhibition test (CFU); assay type: cell-based, Salmonella Enteritidis
Experimental: Seaweed water extracts (SWE) were prepared by grinding sun dried seaweeds to fine powder using a coffee grinder, and adding 5 grams of algal powder to 20 mL distilled water (DW). The resulting slurry was incubated at 50° C. for 3 hours under shaking condition at 140 rpm using an orbital shaker (New Brunswick Scientific, Enfield, Conn., US). The slurry was then centrifuged at 10,000 g for 15 min. The supernatant was recovered and the residual pellet was re-extracted three times using the same procedure. The resulting supernatants were pooled and freeze dried (Thermo Fisher Scientific Inc., US). Dilutions of SWE were prepared by dissolving 0.2, 0.4, 0.8, 1 and 2 g of soluble freeze dried extract in 1 mL distilled water. These dilutions were used as working concentration in all the experiments. The combined effect of the C. crispus (CC) extract or the S. gaudichaudii (SG) extract, with tetracycline or streptomycin (at MIC25 or MIC50), was evaluated in vitro by liquid culture inhibition test. To 10 mL of tryptic soy broth, seaweed extract (SWE) and 100 μL Salmonella Enteritidis (OD600=0.1, 1×10^8 cells/mL) were added. The final concentrations of seaweed extracts in 10 mL with tryptic soy broth were 200, 400, or 800 μg/mL. Culture tubes were incubated at 37° C. for 24 hrs. The growth of S. Enteritidis was determined by plating the serially diluted culture on TSA plates to enumerate the colony forming units (CFU).

In the case of `OCC(CO)O[C@H]1O[C@H](CO)[C@H](O)[C@H](O)[C@H]1O` [Floridoside, 2-O-α-D-galactopyranosylglycerol], the “colony count of S. Enteritidis, log CFU” value (S. Enteritidis [1]) is reported as 6.21 log CFU.

`[H]/N=C(/N)N[C@H]1[C@H](O)[C@@H](O)[C@H](O[C@@H]2O[C@@H](C)[C@](O)(C=O)[C@H]2O[C@@H]2O[C@@H](CO)[C@H](O)[C@@H](O)[C@@H]2NC)[C@@H](N/C(N)=N\[H])[C@@H]1O` [Streptomycin] gave an MIC (S. Enteritidis [2]) of 1 µg/mL (≈ 1.72 µM) and an MIC50 (S. Enteritidis [2]) of 1.63 µg/mL (≈ 2.8 µM).

With `NC(=O)NCCC[C@H](N)C(=O)O` [citrulline] the “CFU of S. Enteritidis compared to control” value (S. Enteritidis [1]) was “no statistically significant difference”.

For `O=S(=O)(O)CCO` [isethionic acid, Isethionic acid], the “colony count of S. Enteritidis, log CFU” value (S. Enteritidis [1]) was 6.33 log CFU.

With `NCCS(=O)(=O)O` [taurine] the “CFU of S. Enteritidis compared to control” value (S. Enteritidis [1]) was “no statistically significant difference”.

For `CN(C)[C@@H]1C(O)=C(C(N)=O)C(=O)[C@@]2(O)C(O)=C3C(=O)c4c(O)cccc4[C@@](C)(O)[C@H]3C[C@@H]12` [tetracycline], the MIC (S. Enteritidis [2]) was ≤ 7.9 µg/mL, the MIC50 (S. Enteritidis [2]) was ≤ 4 µg/mL and the “growth of S. Enteritidis, log CFU” value (S. Enteritidis [3]; MIC controls (tetracycline without SG extract)) was 5.5 log CFU. For the same molecule, the “growth of S. Enteritidis, log CFU” value (S. Enteritidis [3]; tetracycline alone at MIC25, 24 hrs) was 6.1 log CFU and the “growth of S. Enteritidis, log CFU” value (S. Enteritidis [3]; tetracycline alone at MIC50, 24 hrs) was 5.5 log CFU.
